Measurements: patent US9505796B2, “Phosphorylated A2A receptor agonists” (Crozet Medical GMBH, priority 2006, dated 2016)
Where “and” joins values, the source holds several entries; their conditions need not be identical. Equal values may be shown once.

Columns and labels:
[1] = molecular target: T1, A1 receptor rat brain cortical membranes (Rattus norvegicus, UniProt P25099); assay: A1 adenosine receptor radioligand binding vs. [3H]CCPA; settings: rat brain cortical membranes vs. [3H]CCPA (agonist radioligand)
T1 construct: A1 receptor rat brain; from tissue; host or cells: rat brain cortical membranes
T1 sequence (P25099 1-326): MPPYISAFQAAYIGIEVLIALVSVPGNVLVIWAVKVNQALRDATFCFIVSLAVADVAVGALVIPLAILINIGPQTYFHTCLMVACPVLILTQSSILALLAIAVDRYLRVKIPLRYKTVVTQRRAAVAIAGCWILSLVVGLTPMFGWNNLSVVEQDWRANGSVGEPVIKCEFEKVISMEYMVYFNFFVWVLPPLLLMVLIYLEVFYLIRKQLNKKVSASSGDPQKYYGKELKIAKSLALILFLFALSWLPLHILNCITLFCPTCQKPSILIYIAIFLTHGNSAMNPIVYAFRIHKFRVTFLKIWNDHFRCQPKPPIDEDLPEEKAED
Description: (§1) Tris was obtained from Acros Organics (Leverkusen, Germany); DMSO was from Fluka (Switzerland), HCl was from Merck, HAT supplement from Gibco. [^3H]CCPA ([^3H]2-chloro-N^6-cyclopentyladenosine), [^3H]MSX-2 ([^3H]3-(3-hydroxypropyl)-7-methyl-8-(m-methoxy-styryl)-1-propargylxanthine) (84 Ci/mmol), and [^3H]DSB-11 ([^3H]8-ethyl-4-methyl-2-phenyl-(8R)-4,5,7,8-tetrahydro-1H-imidazo[2,1-i]-purin-5-one (53 Ci/mmol)) were custom-labeled by Amersham. All other chemical reagents, cell culture materials and adenosine receptor ligands were obtained from Sigma.
(§2) Radioligand binding studies were performed as previously described.^7,8

[2] = molecular target: T2, A3 receptor human recombinant receptors expressed in CHO cells (Homo sapiens, UniProt P0DMS8); assay: A3 adenosine receptor radioligand binding vs. [3H]PSB-11; settings: human recombinant receptors in CHO cells vs. [3H]PSB-11 (antagonist radioligand; agonist affinities underestimated)
T2 construct: expressed in transfected cells; host or cells: CHO cells
T2 sequence (P0DMS8 1-318): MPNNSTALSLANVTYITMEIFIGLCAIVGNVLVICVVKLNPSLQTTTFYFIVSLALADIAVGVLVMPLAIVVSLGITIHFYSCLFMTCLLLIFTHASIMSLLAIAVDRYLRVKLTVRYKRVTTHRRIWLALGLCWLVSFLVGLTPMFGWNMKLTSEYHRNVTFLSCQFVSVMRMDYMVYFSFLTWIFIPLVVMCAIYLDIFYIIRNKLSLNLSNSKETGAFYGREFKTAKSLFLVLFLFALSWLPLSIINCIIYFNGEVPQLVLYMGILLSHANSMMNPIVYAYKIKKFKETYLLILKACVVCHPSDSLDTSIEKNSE
Description: as §1, §2

[3] = molecular target: T3, A2A receptor rat brain striatal membranes (Rattus norvegicus, UniProt P30543); assay: A2A adenosine receptor radioligand binding, rat brain striatal membranes
T3 construct: A2A receptor rat brain; from tissue; host or cells: rat brain striatal membranes
T3 sequence (P30543 whole entry): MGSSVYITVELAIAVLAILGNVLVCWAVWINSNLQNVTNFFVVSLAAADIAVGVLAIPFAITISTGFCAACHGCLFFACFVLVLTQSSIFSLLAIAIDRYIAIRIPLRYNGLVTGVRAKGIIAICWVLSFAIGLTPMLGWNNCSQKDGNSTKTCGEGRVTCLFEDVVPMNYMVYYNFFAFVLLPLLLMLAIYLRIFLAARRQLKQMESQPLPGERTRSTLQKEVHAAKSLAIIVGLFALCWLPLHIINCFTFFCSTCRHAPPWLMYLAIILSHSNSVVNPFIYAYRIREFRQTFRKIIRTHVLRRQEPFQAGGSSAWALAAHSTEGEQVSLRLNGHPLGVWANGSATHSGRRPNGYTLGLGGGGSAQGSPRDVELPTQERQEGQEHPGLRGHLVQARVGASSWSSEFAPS
Description: as §1, §2

[4] = molecular target: T4, recombinant soluble glutathione-S-transferase/ecto-5′-nucleotidase fusion protein (rat enzyme) (Rattus norvegicus, UniProt P21588); assay: Ecto-5′-nucleotidase substrate specificity assay by capillary electrophoresis; format: biochemical; settings: 500 μM nucleoside 5′-monophosphate, 37° C., 20 min; relative to AMP set at 100%; n = 3
T4 construct: Catalytically active recombinant soluble glutathione-S-transferase/ecto-5′-nucleotidase fusion protein; Dr. Herbert Zimmermann, University of Frankfurt (gift); host or cells: insect cells, baculovirus system
T4 sequence (P21588 29-551 limits assumed): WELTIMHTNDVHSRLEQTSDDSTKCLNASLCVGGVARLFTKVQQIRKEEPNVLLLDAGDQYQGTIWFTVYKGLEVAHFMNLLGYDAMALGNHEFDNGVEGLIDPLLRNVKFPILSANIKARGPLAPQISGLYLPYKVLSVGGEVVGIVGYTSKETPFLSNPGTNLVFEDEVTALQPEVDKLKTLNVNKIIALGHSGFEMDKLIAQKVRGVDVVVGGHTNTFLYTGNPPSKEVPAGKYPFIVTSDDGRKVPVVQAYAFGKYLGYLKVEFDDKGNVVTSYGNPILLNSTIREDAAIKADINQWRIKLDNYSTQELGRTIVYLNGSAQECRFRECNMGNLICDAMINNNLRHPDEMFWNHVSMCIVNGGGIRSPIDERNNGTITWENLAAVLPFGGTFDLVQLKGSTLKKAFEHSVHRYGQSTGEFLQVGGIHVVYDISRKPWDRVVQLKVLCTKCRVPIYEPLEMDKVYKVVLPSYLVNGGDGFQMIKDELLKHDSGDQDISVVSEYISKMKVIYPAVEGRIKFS
Protocol: Catalytically active recombinant soluble glutathione-S-transferase/ecto-5′-nucleotidase fusion protein (rat enzyme) was expressed in insect cells using the baculovirus system and purified by affinity chromatography using agarose-coupled GSH as previously described.^6 The enzyme was obtained from Prof. Dr. Herbert Zimmermann, University of Frankfurt.
Compounds were dissolved in DMSO to obtain 5.0 mM stock solutions. These were further diluted to obtain 1 mM solutions in assay buffer (10 mM Hepes, pH 7.4, 2 mM MgCl2, 1 mM CaCl2). The 1 mM solutions were further diluted in the same buffer as required for the standard calibration curves and the enzyme assays.
CE separations were carried out using a P/ACE MDQ system (Beckman Coulter Instruments, Fullerton, Calif., USA) equipped with a DAD detection system. The electrophoretic separations were carried out using an eCAP fused-silica capillary [30 cm (20 cm effective length), ×75 μm internal diameter (I.D), ×375 μm outside diameter (0.D) obtained from Beckman Coulter]. The following conditions were applied: T=25° C., λmax=232 nm, voltage=15 kV, running buffer 40 mM sodium borate buffer, pH 9.1. The capillary was washed with 0.1 M NaOH for 2 min, deionized water for 1 min, and running buffer for 1 min before each injection. Injections were made by applying 0.1 psi of pressure to the sample solution for 30 s. The amount of adenosine or other nucleosides formed was determined. The CE instrument was fully controlled through a personal computer, which operated with the analysis software 32 KARAT obtained from Beckman Coulter. Electropherograms were evaluated using the same software.
Ecto-5′-nucleotidase substrate specificity assays were performed by using capillary electrophoresis method. Enzyme substrate assays were carried out at 37° C. in a final volume of 100 μl. The reaction mixture contained 500 μM of the nucleoside 5′-monophosphate to be investigated dissolved in reaction buffer (10 mM Hepes, pH 7.4, 2 mM MgCl2, 1 mM CaCl2). The reactions were initiated by adding 10 μl of the appropriately diluted enzyme and was then allowed to proceed at 37° C. for 20 min. The reaction was stopped by heating the mixture at 99° C. for 5 min. Aliquots of 50 μl of the reaction mixture were transferred to mini CE vials and injected into the CE instrument under the conditions described above. The absorbance at 232 nm was monitored continuously and the nucleoside concentrations were determined from the area under each absorbance peak. The experiments were repeated twice with triplicate injections. Control experiments were performed in the absence of substrate and in the absence of enzyme in order to take into account the spontaneous hydrolysis of nucleoside-5′ monophosphates under the experimental conditions, which always amounted to less than 1%.
For the quantification of the dephosphorylation reaction products, we applied the internal normalization method. Thus, the individual peak areas reflected directly the relative content of a corresponding analyte. […] It was verified that in fact there were no observable differences in detector response at the used wavelength and thus no additional correction factors had to be employed for the calculation of the amount of product relative to the amount of substrate. This method is also completely independent of the amount of substrate injected into the capillary which represents 100% at zero reaction time.
Besides AMP, other nucleoside 5′-monophosphates (FIG. 1) were investigated as alternative substrates of ecto-5′-NT. All nucleotides (AMP) were used at a concentration of 500 μM in the presence of 2 mM MgCl2, 1 mM CaCl2, 10 mM Hepes, pH, 7.4, and suitably diluted ecto-5′-NT. Some of the nucleoside 5′-monophosphates were efficiently dephosphorylated to the corresponding nucleosides by the enzyme (Table 1).

[5] = rat brain striatal membranes vs. [3H]MSX-2 (antagonist radioligand; agonist affinities underestimated)

Compound | Ki [2] | Dephosphorylation (%) by ecto-5′-nucleotidase in comparison with AMP [4] | other results
2-(Benzylthio)adenosine-5′-monophosphate [Compound 8] | 120 nM | – | Ki [1]: 927 nM; Ki [3, 5]: 8560 nM
2-(Cyclohexylethylthio)adenosine-5′-monophosphate [Compound 3] | 3600 nM | – | –
2-(Cyclohexylmethylthio)adenosine-5′-monophosphate [Compound 2] | 1700 nM | – | –
2-(Hexylthio)adenosine-5′-monophosphate [Compound 6] | 2300 nM | – | Ki [1]: 256 nM; Ki [3, 5]: 1000 nM
2-(Phenylethylthio)adenosine-5′-monophosphate [Compound 9] | 1200 nM | – | –
2-(Propylthio)adenosine-5′-monophosphate [Compound 4] | – | – | Ki [1]: 1270 nM; Ki ([3]; rat brain striatal membranes vs. [3H]CGS21680 (agonist radioligand)): 1350 nM
Nc1ncnc2c1ncn2[C@@H]1O[C@H](COP(=O)(O)O)[C@@H](O)[C@H]1O [AMP, adenosine monophosphate, reference compound] | – | 100 ± 1.15% | –
Nc1nc(SC2CCCCC2)nc2c1ncn2[C@@H]1O[C@H](COP(=O)(O)O)[C@@H](O)[C@H]1O [Compound 1, 2-(Cyclohexylthio)adenosine-5′-monophosphate] | – | 27.5 ± 1.45% | –
Nc1nc(SCC2CCCCC2)nc2c1ncn2[C@@H]1O[C@H](COP(=O)(O)O)[C@@H](O)[C@H]1O [Compound 2, 2-(Cyclohexylmethylthio)adenosine-5′-monophosphate] | – | 70.5 ± 1.17% | –
Nc1nc(SCCC2CCCCC2)nc2c1ncn2[C@@H]1O[C@H](COP(=O)(O)O)[C@@H](O)[C@H]1O [Compound 3, 2-(Cyclohexylethylthio)adenosine-5′-monophosphate] | – | 95% and 95.7 ± 1.15% | –
CCCSc1nc(N)c2ncn([C@@H]3O[C@H](COP(=O)(O)O)[C@@H](O)[C@H]3O)c2n1 [Compound 4, 2-(Propylthio)adenosine-5′-monophosphate] | – | 46.8 ± 10.5% | –
C=CCSc1nc(N)c2ncn([C@@H]3O[C@H](COP(=O)(O)O)[C@@H](O)[C@H]3O)c2n1 [Compound 5, 2-(Allylthio)adenosine-5′-monophosphate] | – | 0% | –
CCCCCCSc1nc(N)c2ncn([C@@H]3O[C@H](COP(=O)(O)O)[C@@H](O)[C@H]3O)c2n1 [Compound 6, 2-(Hexylthio)adenosine-5′-monophosphate] | – | 84.2 ± 2.61% | –
Nc1nc(SCc2ccccc2)nc2c1ncn2[C@@H]1O[C@H](COP(=O)(O)O)[C@@H](O)[C@H]1O [Compound 8, 2-(Benzylthio)adenosine-5′-monophosphate] | – | 0% | –
Nc1nc(SCCc2ccccc2)nc2c1ncn2[C@@H]1O[C@H](COP(=O)(O)O)[C@@H](O)[C@H]1O [Compound 9, 2-(Phenylethylthio)adenosine-5′-monophosphate] | – | 0% | –
C#CCSc1nc(N)c2ncn([C@@H]3O[C@H](COP(=O)(O)O)[C@@H](O)[C@H]3O)c2n1 [Example No. 10, 2-Propargylthioadenosine-5′-monophosphate] | 10400 nM | – | Ki [1]: 994 nM
